“Also recorded” adds a separate entry of the source.
Legend:
[1] = test system: ISO-induced CREB phosphorylation in striatal neurons; parameters: dose or concentration left out as unconfirmed; conditions: ref unpublished observations; cited from earlier work
From the text: (§1) Supplement pone.0018114.s002.xlsx, sheet "Sheet1" | column: Target (notes)

[2] = test system: CRF-induced CREB phosphorylation in striatal neurons; test: Block of CRF-induced CREB phosphorylation; assay type: cell-based, rat; conditions: 30 min prior and concurrently, CRF 15 min
[3] = test system: forskolin (FSK)-induced CREB phosphorylation; test: Block of forskolin-induced CREB phosphorylation; assay type: cell-based, rat; conditions: H89 2 µM; forskolin 25 µM
Description: (§2) Protocols followed are those described previously, using a well-characterized commercially available monoclonal antibody directed against the Ser133 phosphorylated version of CREB (see below), [66], [70]–[72]. Briefly, cultured striatal neurons (8–10 d.i.v.) were incubated in a Tyrode's solution containing TTX (1 µM) and AP-5 (25 µM) at room temperature for 1.5 hr. Unless noted otherwise, cell stimulations were performed as follows: vehicle (15 min); agonist stimulations were 15 min, antagonist exposure was 30 min prior to agonist stimulation, except PTX and CTX (18 hr pre-treatment), and concurrently with agonist stimulation. […] Data were quantified with Leica LAS AF (version 1.9.0; Leica).
(§3) The confocal excitation and detection settings for each experiment were determined using coverslips stimulated for 5 min with 60 mM potassium (60 K) to establish a “ceiling” for pCREB intensity. A baseline was determined via the vehicle (NS) group, so that each assay has an internal control. […] Neurons were readily discriminated from glia via size and morphology (see Figure 1 and Figure S1) and selected randomly using α-tubulin or MAP2 fluorescence, allowing the experimenter to remain blind to the CREB or pCREB signal. […] To analyze pCREB fluorescence intensity, the α-tubulin or MAP2 staining was used to draw a region of interested (ROI) of interest outlining the nucleus of each neuron. […]

PKA = conditions: cited from earlier work
From the text: as §1

ROCK-II = conditions: cited from earlier work
From the text: as §1

MAPKAP = conditions: cited from earlier work
From the text: as §1

PKB = conditions: cited from earlier work
From the text: as §1

[4] = test system: BDNF-induced NFAT activation; conditions: 100 nM; cited from earlier work
From the text: as §1

Ras = conditions: cited from earlier work
From the text: as §1

Rac1 = test system: Rac1; parameters: dose or concentration left out as unconfirmed; conditions: cited from earlier work
From the text: as §1

[5] = test system: ISO-induced CREB phosphorylation in striatal neurons; test: Block of isoproterenol-induced CREB phosphorylation; assay type: cell-based, rat; conditions: gallein 75 µM; ISO 10 µM
Description: as §2, §3

PI3K = conditions: cited from earlier work
From the text: as §1

In the case of `O=C1Nc2ccc(I)cc2/C1=C/c1cc(Br)c(O)c(Br)c1` [GW5074], the “effect on ISO-induced pCREB in striatal neurons” value [1] is given as “c-Raf (1 mM blocks ISO-induced pCREB in striatal neurons)” and the “effect on CRF-induced CREB phosphorylation” value ([2]; inhibitor 1 µM, data not shown) is given as “failed to affect CRF-induced CREB phosphorylation”.
In the case of `O=S(=O)(NCCNC/C=C/c1ccc(Br)cc1)c1cccc2cnccc12` [H89], the “effect on forskolin-induced CREB phosphorylation” value [3] is listed as “attenuated forskolin (FSK)-induced CREB phosphorylation”, the “effect on CRF-induced CREB phosphorylation” value ([2]; inhibitor 2 µM) is listed as “failed to block CRF-induced CREB phosphorylation” and the IC50 (PKA) is listed as 135 nM. The IC50 (ROCK-II) was greater than 270 nM, the IC50 (MAPKAP) was greater than 270 nM and the IC50 (PKB) was […].
In the case of `COC(=O)[C@@]1(O)C[C@H]2O[C@]1(C)n1c3ccccc3c3c4c(c5c6ccccc6n2c5c31)C(=O)NC4` [K252a], the “effect on CRF-induced CREB phosphorylation” value ([2]; inhibitor 100 nM) is listed as “failed to affect CRF-induced CREB phosphorylation” and the “effect on BDNF-induced NFAT activation” value [4] is listed as “Tyrosine Kinase (100 nM prevents BDNF-induced NFAT activation)”.
For `Cc1cc(C(=O)N2CCN(c3cccc(Cl)c3)CC2)n(-c2ccccc2)n1` [XRP44X], the “effect on CRF-induced CREB phosphorylation” value ([2]; inhibitor 2 µM) is given as “failed to affect CRF-induced CREB phosphorylation” and the IC50 (Ras) is given as 10 to 20 nM.
In the case of `O=C1OC2(c3ccccc31)c1ccc(O)c(O)c1Oc1c2ccc(O)c1O` [gallein], the Rac1 activation inhibition (Rac1) is listed as “inhibits PI3K and Rac1 activation”, the “effect on CRF-induced CREB phosphorylation” value ([2]; inhibitor 75 µM) is listed as “CRF failed to induce CREB phosphorylation in the presence of this drug; also recorded: eliminated CRF-induced CREB phosphorylation” and the “effect on ISO-induced CREB phosphorylation” value [5] is listed as “should not affect ISO-dependent CREB phosphorylation. Indeed, this was in fact the case; also recorded: had no effect on CREB phosphorylation”. The PI3K inhibition (PI3K) was “inhibits PI3K”.

From article PMC3063246, “Corticotropin Releasing Factor-Induced CREB Activation in Striatal Neurons Occurs via a Novel Gβγ Signaling Pathway” (PLoS ONE, 2011)
